These compounds were tested on differentiated HL-60 cells (assay: ROS production induced by PMA in HL-60 cells differentiated into neutrophil cells (L-012 luminescence)). Conditions: Homo sapiens, HL-60, synthetic example compounds 0.5 uM, read-out: ROS production inhibitory effect.
Format: cell-based, human
Description: (§1) In order to confirm an effect of the synthetic example compounds on ROS production from fibroblasts and specific substrate cells, ROS production was induced by stimulation of PMA (phorbol 12-myristate 13-acetate), TGF-β1, palmitate or high concentration-glucose, or the like for HL-60 cells (Korean Cell Line Bank), NHLF(normal human lung fibroblast, Lonza), LX-2 (human hepatic stellate cells, Sigma), ARPE19 (human retinal pigment epithelial cell, ATCC), KEL-FIB (Keloid fibroblast, ATCC) cells differentiated into neutrophil cells by treatment of DMSO, and the inhibitory effect of ROS production of the synthetic example compounds was observed under this condition.
HL-60 cells (human leukemia cells, ATCC) was suspended in a medium comprising 1.25% DMSO (RPMI+10% FBS) and cultured under the condition of 5% CO2, 37° C. for 6 days to induce differentiation into neutrophil cells. […] Then, PMA of […] was treated in each well comprising cells and a drug to induce production of ROS, and this ROS production was measured by observing the level of luminescence of each well using 100 μM L-012.
Oc1c2c(nn1-c1ccccn1)CCCC2 [compound 1] gave an inhibition at 0.5 µM of under 30%. With Oc1c2c(nn1-c1ccc(C(F)(F)F)cn1)CCCC2 [compound 2] the inhibition at 0.5 µM was under 30%. Compound Oc1c2c(nn1-c1ccccn1)CN(Cc1ccccc1)CC2 [compound 3] has an inhibition at 0.5 µM of 50 to 70%. Compound Oc1c2c(nn1-c1ccc(C(F)(F)F)cn1)CN(Cc1ccccc1)CC2 [compound 4] has an inhibition at 0.5 µM of 30 to 50%. In the case of Oc1c2c(nn1-c1ccccn1)CN(Cc1ccc(F)cc1)CC2 [compound 6], the inhibition at 0.5 µM is reported as 30 to 50%. In the case of Cc1ccc(CN2CCc3c(nn(-c4ccccn4)c3O)C2)cc1 [compound 7], the inhibition at 0.5 µM is reported as 30 to 50%. N#Cc1ccc(CN2CCc3c(nn(-c4ccccn4)c3O)C2)cc1 [compound 8] showed an inhibition at 0.5 µM of 50 to 70%. Oc1c2c(nn1-c1ccccn1)CN(Cc1cc(F)cc(F)c1)CC2 [compound 9] gave an inhibition at 0.5 µM of 50 to 70%. Oc1c2c(nn1-c1ccccn1)CN(Cc1cccc(C(F)(F)F)c1)CC2 [compound 10] was tested, and the inhibition at 0.5 µM was 30 to 50%. In the case of CCN1CCc2c(nn(-c3ccccn3)c2O)C1 [compound 15], the inhibition at 0.5 µM is reported as under 30%. C#CCN1CCc2c(nn(-c3ccccn3)c2O)C1 [compound 16] gave an inhibition at 0.5 µM of under 30%. With O=C(NC1CCCCC1)N1CCc2c(nn(-c3ccccn3)c2O)C1 [compound 23] the inhibition at 0.5 µM was under 30%. In the case of O=S(=O)(c1ccccc1)N1CCc2c(nn(-c3ccccn3)c2O)C1 [compound 26], the inhibition at 0.5 µM is reported as 50 to 70%. Work on O=C(OCc1ccc([N+](=O)[O-])cc1)N1CCc2c(nn(-c3ccccn3)c2O)C1 [compound 32] yielded an inhibition at 0.5 µM of 30 to 50%. Work on Oc1c2c(nn1-c1ccccn1)CCN(Cc1ccccc1)C2 [compound 34] yielded an inhibition at 0.5 µM of 30 to 50%. Compound Oc1c2c(nn1-c1ccc(Cl)cn1)CN(Cc1ccccc1)CC2 [compound 35] has an inhibition at 0.5 µM of 50 to 70%. For O=C(O)c1ccc(-n2nc3c(c2O)CCN(Cc2ccccc2)C3)cc1 [compound 36], the inhibition at 0.5 µM was over 70%. Oc1c2c(nn1-c1ccc(Br)cc1)CN(Cc1ccccc1)CC2 [compound 37] showed an inhibition at 0.5 µM of over 70%. Oc1c2c(nn1-c1ccccc1)CN(Cc1ccccc1)CC2 [compound 38] was tested, and the inhibition at 0.5 µM was over 70%. With Oc1c2c(nn1-c1ccc(C(F)(F)F)cn1)CCN(Cc1ccccc1)C2 [compound 39] the inhibition at 0.5 µM was under 30%. Compound Oc1c2c(nn1-c1ccccc1)CCN(Cc1ccccc1)C2 [compound 40] has an inhibition at 0.5 µM of 50 to 70%. With Oc1c2c(nn1-c1ccc(Br)cc1)CCN(Cc1ccccc1)C2 [compound 41] the inhibition at 0.5 µM was 50 to 70%. With Oc1c2c(nn1-c1ccccc1Cl)CCN(Cc1ccccc1)C2 [compound 42] the inhibition at 0.5 µM was under 30%. Work on Oc1c2c(nn1-c1ccc(C(F)(F)F)cn1)CCN(Cc1cccc(C(F)(F)F)c1)C2 [compound 50] yielded an inhibition at 0.5 µM of 30 to 50%. N#Cc1ccc(CN2CCc3nn(-c4ccccn4)c(O)c3C2)cc1 [compound 75] showed an inhibition at 0.5 µM of 50 to 70%. N#Cc1ccc(CN2CCc3nn(-c4ccc(C(F)(F)F)cn4)c(O)c3C2)cc1 [compound 76] gave an inhibition at 0.5 µM of 30 to 50%. For Oc1c2c(nn1-c1ccccn1)CCN(Cc1cccc(C(F)(F)F)c1)C2 [compound 77], the inhibition at 0.5 µM was 30 to 50%. For Oc1c2c(nn1-c1ccccn1)CCN(Cc1cc3ccccc3cn1)C2 [compound 79], the inhibition at 0.5 µM was 50 to 70%. With Oc1c2c(nn1-c1ccc(C(F)(F)F)cn1)CCN(Cc1cc3ccccc3cn1)C2 [compound 80] the inhibition at 0.5 µM was 50 to 70%. O=C(O)c1ccc(-n2nc3c(c2O)CN(Cc2ccccc2)CC3)cc1 [compound 81] gave an inhibition at 0.5 µM of over 70%.

Same assay, conditions: synthetic example compounds 0.5 uM, 0.5 µM
For Oc1c2c(nn1-c1ccc(C(F)(F)F)cn1)CCN(Cc1cccc(C(F)(F)F)c1)C2 [compound 78], the “ROS production inhibitory effect” value was “*** (***: 50 < <70%)”.

These compounds were tested on LX-2 cells (assay: ROS production in LX-2 cells (L-012 or DCF-DA)). Conditions: FIG. 1.
Format: cell-based, human
Description: as §1
(§2) NHLF (normal human lung fibroblast, Lonza), LX-2 (human hepatic stellate cells, Sigma), ARPE19 (human retinal pigment epithelial cell, ATCC), KEL-FIB (keloid fibroblast, ATCC) cells were suspended in a culture medium comprising 10% FBS and aliquoted in a 96 well plate, and then cultured under the condition of 5% CO2, 37° C. for 24 hours. The synthetic example compound was pretreated from 30 minutes to 1 hour, and then a ROS stimulus was treated to each well comprising cells and a drug. After additional culturing for 48 hours, the level of ROS production was confirmed by using L-012 or DCF-DA.
Oc1c2c(nn1-c1ccccn1)CCN(Cc1ccccc1)C2 [Synthetic example 34, 5-benzyl-2-(pyridin-2-yl)-4,5,6,7-tetrahydro-2H-pyrazolo[4,3-c]pyridin-3-ol] was tested, and the “inhibition of ROS production induced by PMA” value was “inhibited ROS production”.

The compounds below were run on NHLF cells (assay: ROS production in NHLF cells (L-012 or DCF-DA)). Conditions: FIG. 1.
Format: cell-based, human
Description: as §1, §2
In the case of Oc1c2c(nn1-c1ccccn1)CCN(Cc1ccccc1)C2 [Synthetic example 34, 5-benzyl-2-(pyridin-2-yl)-4,5,6,7-tetrahydro-2H-pyrazolo[4,3-c]pyridin-3-ol], the “inhibition of ROS production induced by PMA” value is reported as “inhibited ROS production”.

These compounds were tested on bleomycin-induced pulmonary fibrosis mouse model (assay: Bleomycin-induced pulmonary fibrosis mouse model). Conditions: BLM+NIN; 100 mg/kg orally once a day for 28 days; BLM group 5.4±0.5, negative control 0.4±0.55.
Format: in vivo
Description: As a bleomycin-induced pulmonary fibrosis mouse model, 5-week-old, C57BL/6J male mice weighing 20 g before and after were used. The experiment was progressed by dividing the experimental animals into a control group in which distilled water was orally administered (Control), a group in which pulmonary fibrosis was caused by bleomycin (BLM), an experimental group in which bleomycin was administered and in 3 weeks, as a positive control group, nintedanib of 100 mg/kg was orally administered daily (BLM+NIN), and an experimental group in which bleomycin was administered and in 3 weeks, the synthetic example compound of the present invention of 3 mg/kg was orally administered daily (BLM+Synthetic example) as 7 mice per group.
The nintedanib and synthetic example compound was orally administered once a day for 28 days. […]
Comprehensively, based on the above histological and immunological results, by quantifying with improved Ashcroft scores (modified Ashcroft scale) widely used in the pulmonary fibrosis tissue analysis field, the severity of pulmonary fibrosis of each of the synthetic example compound administration groups (BLM+Synthetic example) compared to the negative control group (control), experimental group (BLM), positive control group was evaluated. […] For the experimental result, the mean and standard deviation were calculated using SPSS ver. […]
COC(=O)c1ccc2c(c1)NC(=O)/C2=C(\Nc1ccc(N(C)C(=O)CN2CCN(C)CC2)cc1)c1ccccc1 [nintedanib] was tested, and the “improved Ashcroft score (modified Ashcroft scale)” value was 5.0±0.

Each compound was assayed on STAM mice (assay: Non-alcoholic steatohepatitis and liver fibrosis STAM mouse model). Conditions: STAM+TEL; 10 mg/kg orally once a day for 28 days; STAM+vehicle 0.93±0.36, normal control 0.29±0.06.
Format: in vivo
Description: In order to confirm the therapeutic effect for non-alcoholic steatohepatitis and liver fibrosis of the synthetic example compound of the present invention, non-alcoholic steatohepatitis and liver fibrosis-induced STAM mice (6-week-old, female, SMC laborlabories Inc, Japan) were used. All the mice were maintained under a standard condition. The experiment was progressed by dividing the experimental animals into a normal control group in which distilled water was orally administered (negative control), STAM group in which non-alcoholic steatohepatitis and fibrosis were induced (vehicle control), an experimental group in which telmisartane of 10 mg/kg was orally administered daily as a STAM positive control group (STAM+TEL), and an experimental group in which the synthetic example compound of 3 or 10 mg/kg was orally administered daily (STAM+Synthetic example) as 7 mice per group. The telmisartane and synthetic example compound were orally administered once a day for 28 days.
After completing the test, the animals were anesthetized and liver tissue was extracted for each individual, and blood was taken for examination. The weight of the liver tissue was measured and it was photographed. The tissue was fixed in 10% buffered neutral formalin solution. […]
For CCCc1nc2c(C)cc(-c3nc4ccccc4n3C)cc2n1Cc1ccc(-c2ccccc2C(=O)O)cc1 [telmisartane], the “liver fibrosis area (Sirius red staining)” value was 0.44±0.15.

Same assay, conditions: STAM+TEL; 10 mg/kg orally once a day for 28 days; STAM+vehicle 4.8±0.7, normal control 0.0±0.0
For CCCc1nc2c(C)cc(-c3nc4ccccc4n3C)cc2n1Cc1ccc(-c2ccccc2C(=O)O)cc1 [telmisartane], the “improved NAS score” value was 2.8±0.7.

Source: patent US12509438B2, “Pyrazole derivative” (Aptabio Therapeutics Inc., priority 2020, dated 2025)
